Calls of active or inactive are those of the source. The rule behind the calls is not given here.
Legend:
MDCK [1] = experiment: Increase in permeability of lucifer yellow dye across MDCK cells; type: functional, cell-based; settings: Canis lupus familiaris
[2] = Apparent permeability from apical to basolateral side in human Caco2 cells at 50 uM over 2 hrs by isocratic reverse phase HPLC method; type: ADME, cell-based; settings: Caco-2
[3] = (§1) Permeability ratio, ratio of permeability from basolateral to apical side over apical to basolateral side in MDCK cells at 50 uM over 2 hrs by isocratic reverse phase HPLC method; type: ADME, cell-based, Canis lupus familiaris; settings: dog, MDCK
[4] = Apparent permeability from basolateral to apical side in MDCK cells at 50 uM over 2 hrs by isocratic reverse phase HPLC method; type: ADME, cell-based, Canis lupus familiaris; settings: dog
MDCK [5] = experiment: Permeability ratio, ratio of permeability from apical to basolateral side over basolateral to apical side in MDCK cells at 50 uM over 2 hrs by isocratic reverse phase HPLC method; type: ADME, cell-based, Canis lupus familiaris; settings: dog
[6] = Apparent permeability from basolateral to apical side in human Caco2 cells at 50 uM over 2 hrs by isocratic reverse phase HPLC method; type: ADME, cell-based; settings: Caco-2
[7] = Permeability ratio, ratio of permeability from apical to basolateral side over basolateral to apical side in human Caco2 cells at 50 uM over 2 hrs by isocratic reverse phase HPLC method; type: ADME, cell-based; settings: caco-2, 2 h
[8] = Ratio of apparent permeability from basolateral to apical side in MDCK cells to apparent permeability from basolateral to apical side in human Caco2 cells; type: ADME, cell-based; settings: caco-2
MDCK [9] = experiment: Cytotoxicity against MDCK cells assessed as reduction in cell viability; type: cell-based, Canis lupus familiaris; set-up: concentration or dose not given beside the values; settings: dog
Caco-2 = experiment: Increase in permeability of lucifer yellow dye across human Caco2 cells; type: functional, cell-based
[10] = Apparent permeability from apical to basolateral side in MDCK cells at 50 uM over 2 hrs by isocratic reverse phase HPLC method; type: ADME, cell-based, Canis lupus familiaris; settings: dog
[11] = Cytotoxicity against human Caco2 cells assessed as reduction in cell viability; type: cell-based; settings: Caco-2
[12] = Efflux ratio, ratio of permeability from basolateral to apical side over apical to basolateral side in human Caco2 cells at 50 uM over 2 hrs by isocratic reverse phase HPLC method; type: ADME, cell-based; settings: Caco-2
[13] = Ratio of apparent permeability from apical to basolateral side in MDCK cells to apparent permeability from apical to basolateral side in human Caco2 cells; type: ADME, cell-based; settings: caco-2
MDCK [14] = experiment: as §1; type: ADME, cell-based, Canis lupus familiaris; settings: dog, mdck, 2 h, 50 µM

With COc1ccc(/C=C2\CNC/C(=C\c3ccc(OC)c(OC)c3)C2=O)cc1OC the Activity (MDCK [1]) was “Active”, the Papp A→B at 2 h, 50 µM [2] was 14.4 ×10⁻⁶ cm/s and the efflux ratio at 2 h, 50 µM [3] was 0.39. It also gave a Papp B→A at 2 h, 50 µM [4] of 8.7 ×10⁻⁶ cm/s, a Ratio (MDCK [5]) of 2.55 and a Papp B→A at 2 h, 50 µM [6] of 4.12 ×10⁻⁶ cm/s. It also gave a Ratio [7] of 3.5, a Ratio [8] of 2.11 and an Activity (MDCK [9]) of 4%. For the same compound, the Activity (Caco-2) was “inactive”, the Papp A→B at 2 h, 50 µM [10] was 22.2 ×10⁻⁶ cm/s and the Activity [11] was “Non-toxic”. It also gave an efflux ratio at 2 h, 50 µM [12] of 0.29 and a Ratio [13] of 1.54.
In the case of CCOP(=O)(OCC)N1C/C(=C\c2cc(OC)c(OC)c(OC)c2)C(=O)/C(=C/c2cc(OC)c(OC)c(OC)c2)C1, the Activity (MDCK [1]) is reported as “Active”, the Papp A→B at 2 h, 50 µM [2] is reported as 28.5 ×10⁻⁶ cm/s and the efflux ratio at 2 h, 50 µM [3] is reported as 0.48. It also gave a Papp B→A at 2 h, 50 µM [4] of 50.3 ×10⁻⁶ cm/s, a Ratio (MDCK [5]) of 2.08 and a Papp B→A at 2 h, 50 µM [6] of 8.82 ×10⁻⁶ cm/s. The Ratio [7] was 3.23, the Ratio [8] was 5.73 and the Activity (MDCK [9]) was 4%. For the same compound, the Activity (Caco-2) was “inactive”, the Papp A→B at 2 h, 50 µM [10] was 105 ×10⁻⁶ cm/s and the Activity [11] was “Non-toxic”. It also gave an efflux ratio at 2 h, 50 µM [12] of 0.31 and a Ratio [13] of 3.68.
With COc1cccc(/C=C2\CNC/C(=C\c3cccc(OC)c3OC)C2=O)c1OC the Activity (MDCK [1]) was “Active”, the Papp A→B at 2 h, 50 µM [2] was 23.4 ×10⁻⁶ cm/s and the efflux ratio at 2 h, 50 µM [3] was 0.43. It also gave a Papp B→A at 2 h, 50 µM [4] of 6.28 ×10⁻⁶ cm/s, a Ratio (MDCK [5]) of 2.34 and a Papp B→A at 2 h, 50 µM [6] of 7.22 ×10⁻⁶ cm/s. For the same compound, the Ratio [7] was 3.24, the Ratio [8] was 0.87 and the Activity (MDCK [9]) was 4%. The Activity (Caco-2) was “inactive”, the Papp A→B at 2 h, 50 µM [10] was 14.7 ×10⁻⁶ cm/s and the Activity [11] was “Non-toxic”. It also gave an efflux ratio at 2 h, 50 µM [12] of 0.31 and a Ratio [13] of 0.63.
In the case of CCOP(=O)(OCC)N1C/C(=C\c2ccc(OC)c(OC)c2)C(=O)/C(=C/c2ccc(OC)c(OC)c2)C1, the Activity (MDCK [1]) is reported as “Active”, the Papp A→B at 2 h, 50 µM [2] is reported as 54.7 ×10⁻⁶ cm/s and the efflux ratio at 2 h, 50 µM [3] is reported as 0.44. It also gave a Papp B→A at 2 h, 50 µM [4] of 27.7 ×10⁻⁶ cm/s, a Ratio (MDCK [5]) of 2.25 and a Papp B→A at 2 h, 50 µM [6] of 8.17 ×10⁻⁶ cm/s. For the same compound, the Ratio [7] was 6.7, the Ratio [8] was 3.39 and the Activity (MDCK [9]) was 4%. The Activity (Caco-2) was “inactive”, the Papp A→B at 2 h, 50 µM [10] was 62.3 ×10⁻⁶ cm/s and the Activity [11] was “Non-toxic”. It also gave an efflux ratio at 2 h, 50 µM [12] of 0.15 and a Ratio [13] of 1.14.
With COc1ccccc1/C=C1\CNC/C(=C\c2ccccc2OC)C1=O the Activity (MDCK [1]) was “Active”, the Papp A→B at 2 h, 50 µM [2] was 32.5 ×10⁻⁶ cm/s and the efflux ratio at 2 h, 50 µM [3] was 0.48. For the same compound, the Papp B→A at 2 h, 50 µM [4] was 13.9 ×10⁻⁶ cm/s, the Ratio (MDCK [5]) was 2.06 and the Papp B→A at 2 h, 50 µM [6] was 10.4 ×10⁻⁶ cm/s. The Ratio [7] was 3.13, the Ratio [8] was 1.34 and the Activity (MDCK [9]) was 4%. For the same compound, the Activity (Caco-2) was “inactive”, the Papp A→B at 2 h, 50 µM [10] was 28.7 ×10⁻⁶ cm/s and the Activity [11] was “Non-toxic”. It also gave an efflux ratio at 2 h, 50 µM [12] of 0.32 and a Ratio [13] of 0.88.
With O=C1/C(=C/c2ccccc2F)CNC/C1=C\c1ccccc1F the Activity (MDCK [1]) was “Active”, the Papp A→B at 2 h, 50 µM [2] was 3.53 ×10⁻⁶ cm/s and the efflux ratio at 2 h, 50 µM [3] was 0.1. It also gave a Papp B→A at 2 h, 50 µM [4] of 0.36 ×10⁻⁶ cm/s, a Ratio (MDCK [5]) of 9.83 and a Papp B→A at 2 h, 50 µM [6] of 0.6 ×10⁻⁶ cm/s. It also gave a Ratio [7] of 5.88, a Ratio [8] of 0.6 and an Activity (MDCK [9]) of 4%. For the same compound, the Activity (Caco-2) was “inactive”, the Papp A→B at 2 h, 50 µM [10] was 3.54 ×10⁻⁶ cm/s and the Activity [11] was “Non-toxic”. The efflux ratio at 2 h, 50 µM [12] was 0.17 and the Ratio [13] was 1.
In the case of CN(C)c1ccc(/C=C/C(=O)/C=C/c2ccc(N(C)C)cc2)cc1, the Activity (MDCK [1]) is reported as “Active”, the Papp A→B at 2 h, 50 µM [2] is reported as 8.42 ×10⁻⁶ cm/s and the Ratio (MDCK [14]) is reported as 0.81. It also gave a Papp B→A at 2 h, 50 µM [4] of 15.9 ×10⁻⁶ cm/s, a Ratio (MDCK [5]) of 1.24 and a Papp B→A at 2 h, 50 µM [6] of 7.02 ×10⁻⁶ cm/s. For the same compound, the Ratio [7] was 1.2, the Ratio [8] was 2.27 and the Activity (MDCK [9]) was 4%. The Activity (Caco-2) was “inactive”, the Papp A→B at 2 h, 50 µM [10] was 19.7 ×10⁻⁶ cm/s and the Activity [11] was “Non-toxic”. It also gave an efflux ratio at 2 h, 50 µM [12] of 0.83 and a Ratio [13] of 2.34.
In the case of O=C(/C=C/c1ccccc1)c1ccccc1 [CHALCONE], the Activity (MDCK [1]) is reported as “Active”, the Papp A→B at 2 h, 50 µM [2] is reported as 2.89 ×10⁻⁶ cm/s and the efflux ratio at 2 h, 50 µM [3] is reported as 0.33. It also gave a Papp B→A at 2 h, 50 µM [4] of 1.26 ×10⁻⁶ cm/s, a Ratio (MDCK [5]) of 3.05 and a Papp B→A at 2 h, 50 µM [6] of 1.05 ×10⁻⁶ cm/s. For the same compound, the Ratio [7] was 2.75, the Ratio [8] was 1.2 and the Activity (MDCK [9]) was 4%. The Activity (Caco-2) was “inactive”, the Papp A→B at 2 h, 50 µM [10] was 3.84 ×10⁻⁶ cm/s and the Activity [11] was “Non-toxic”. It also gave an efflux ratio at 2 h, 50 µM [12] of 0.36 and a Ratio [13] of 1.33.
For CCOC(=O)c1ccc(/C=C2\CNC/C(=C\c3ccc(C(=O)OCC)cc3)C2=O)cc1, the Activity (MDCK [1]) was “Active”, the Papp A→B at 2 h, 50 µM [2] was 2.82 ×10⁻⁶ cm/s and the efflux ratio at 2 h, 50 µM [3] was 0.37. For the same compound, the Papp B→A at 2 h, 50 µM [4] was 0.99 ×10⁻⁶ cm/s, the Ratio (MDCK [5]) was 2.73 and the Papp B→A at 2 h, 50 µM [6] was 0.99 ×10⁻⁶ cm/s. It also gave a Ratio [7] of 2.85, a Ratio [8] of 1 and an Activity (MDCK [9]) of 4%. For the same compound, the Activity (Caco-2) was “inactive”, the Papp A→B at 2 h, 50 µM [10] was 2.7 ×10⁻⁶ cm/s and the Activity [11] was “Non-toxic”. It also gave an efflux ratio at 2 h, 50 µM [12] of 0.35 and a Ratio [13] of 0.96.
For O=C1/C(=C/c2cccc(O)c2)CNC/C1=C\c1cccc(O)c1, the Activity (MDCK [1]) was “Active”, the Papp A→B at 2 h, 50 µM [2] was 15.4 ×10⁻⁶ cm/s and the efflux ratio at 2 h, 50 µM [3] was 0.3. It also gave a Papp B→A at 2 h, 50 µM [4] of 6.53 ×10⁻⁶ cm/s, a Ratio (MDCK [5]) of 3.35 and a Papp B→A at 2 h, 50 µM [6] of 5.83 ×10⁻⁶ cm/s. The Ratio [7] was 2.64, the Ratio [8] was 1.12 and the Activity (MDCK [9]) was 4%. For the same compound, the Activity (Caco-2) was “inactive”, the Papp A→B at 2 h, 50 µM [10] was 21.9 ×10⁻⁶ cm/s and the Activity [11] was “Non-toxic”. The efflux ratio at 2 h, 50 µM [12] was 0.38 and the Ratio [13] was 1.42.
